Test results taken from patent publication US6413733B1, “Stabilized reagent and method for determining creatine kinase” (Roche Diagnostics GmbH, priority 1997, dated 2002).

Columns and labels:
Assay type in all cases: biochemical
G6P-DH [1] = assay: Long-term stability G6P-DH, 10 mmol/l DTT compared to 1 mmol/l Na2SO3
Method: (§1) For the determination 250 μl R1 is mixed with 10 μl sample, incubated for 5 minutes, the reaction is started with 50 μl R2 and the CK activity is measured after incubating for a further 1 minute. The CK or G6P-DH enzyme activity was determined after storage at 2 to 8° C. or 35° C. for various periods (table 1-3,FIGS. 1-3).
The reagent R was combined with the sample to be measured as described in example 1 and the corresponding enzyme activities were determined (table 5,FIG. 5).

creatine kinase (CK) [2] = assay: CK functional stability of the reagent with Na2SO3 (example 1); conditions: for CK functional stability, 35° C. compared to 2 to 8° C.: 14 days storage
Method: as §1

G6P-DH [3] = assay: G6P-DH stability in the reagent with Na2SO3, 14 days storage (example 1); conditions: for G6P-DH stability, 35° C. compared to 2 to 8° C.: 14 days storage
Method: as §1

creatine kinase (CK) [4] = assay: Influence of the amount of sulfite on the CK activity (example 2)
Method: as §1
The reagent composition and the test procedure are essentially analogous to example 1. Only the amount of sodium sulfite (0 to 20 mmol/l) added to reagent 1 was varied.

creatine kinase (CK) [5] = assay: Regeneration of the CK in R1 by adding sulfite in R2 (example 4); conditions: 10 mmol/l sulfite in R2
Method: as §1
The mixing of R1, R2 and the respective sample and the subsequent determination were carried out according to example 1.

[6] = 10 mmol/l DTT, example 3, 0 days at 2 to 8° C.
[7] = 10 mmol/l DTT, example 3, 55 days at 2 to 8° C.
[8] = 10 mmol/l DTT, example 3, 85 days at 2 to 8° C.
[9] = 10 mmol/l DTT, example 3, 114 days at 2 to 8° C.
[10] = 10 mmol/l DTT, example 3, 136 days at 2 to 8° C.
[11] = 10 mmol/l DTT, example 3, 192 days at 2 to 8° C.
[12] = 10 mmol/l DTT, example 3, 220 days at 2 to 8° C.
[13] = 1 mmol/l Na2SO3 in reagent 1, sample 1
[14] = 1 mmol/l Na2SO3 in reagent 1, sample 2
[15] = 2 mmol/l Na2SO3 in reagent 1, sample 1
[16] = 2 mmol/l Na2SO3 in reagent 1, sample 2
[17] = 3 mmol/l Na2SO3 in reagent 1, sample 1
[18] = 3 mmol/l Na2SO3 in reagent 1, sample 2
[19] = 4 mmol/l Na2SO3 in reagent 1, sample 1
[20] = 4 mmol/l Na2SO3 in reagent 1, sample 2
[21] = 1 mmol/l sulfite, example 1, 0 days at 2 to 8° C.
[22] = 1 mmol/l sulfite, example 1, 55 days at 2 to 8° C.
[23] = 1 mmol/l sulfite, example 1, 85 days at 2 to 8° C.
[24] = 1 mmol/l sulfite, example 1, 114 days at 2 to 8° C.
[25] = 1 mmol/l sulfite, example 1, 136 days at 2 to 8° C.
[26] = 1 mmol/l sulfite, example 1, 192 days at 2 to 8° C.
[27] = 1 mmol/l sulfite, example 1, 220 days at 2 to 8° C.
[28] = 1 mmol/l sulfite, example 1, 308 days at 2 to 8° C.
[29] = 1 mmol/l sulfite, example 1, 345 days at 2 to 8° C.
[30] = 1 mmol/l sulfite, example 1, 451 days at 2 to 8° C.

O[C@H](CS)[C@H](O)CS (racemic) [DTT, dithiothreitol, reference compound]
G6P-DH activity (G6P-DH [1]; [6]): 4.67 U/ml
G6P-DH activity relative to day 0 (G6P-DH [1]; [6]): 100.0%
G6P-DH activity (G6P-DH [1]; [7]): 2.81 U/ml
G6P-DH activity relative to day 0 (G6P-DH [1]; [7]): 60.2%
G6P-DH activity (G6P-DH [1]; [8]): 2.69 U/ml
G6P-DH activity relative to day 0 (G6P-DH [1]; [8]): 57.6%
G6P-DH activity (G6P-DH [1]; [9]): 2.07 U/ml
G6P-DH activity relative to day 0 (G6P-DH [1]; [9]): 44.4%
G6P-DH activity (G6P-DH [1]; [10]): 1.55 U/ml
G6P-DH activity relative to day 0 (G6P-DH [1]; [10]): 33.1%
G6P-DH activity (G6P-DH [1]; [11]): 0.52 U/ml
G6P-DH activity relative to day 0 (G6P-DH [1]; [11]): 11.1%
G6P-DH activity (G6P-DH [1]; [12]): 0.29 U/ml
G6P-DH activity relative to day 0 (G6P-DH [1]; [12]): 6.2%

O=S([O-])[O-].[Na+].[Na+] [Na2SO3, sodium sulfite]
CK activity, 14 days storage at 2 to 8° C. (creatine kinase (CK) [2]; [13]): 278 U/l
CK activity, 14 days storage at 35° C. (creatine kinase (CK) [2]; [13]): 267 U/l
CK functional stability, 35° C. compared to 2 to 8° C. (creatine kinase (CK) [2]; [13]): 96.0%
CK activity, 14 days storage at 2 to 8° C. (creatine kinase (CK) [2]; [14]): 540 U/l
CK activity, 14 days storage at 35° C. (creatine kinase (CK) [2]; [14]): 512 U/l
CK functional stability, 35° C. compared to 2 to 8° C. (creatine kinase (CK) [2]; [14]): 94.8%
CK activity, 14 days storage at 2 to 8° C. (creatine kinase (CK) [2]; [15]): 274 U/l
CK activity, 14 days storage at 35° C. (creatine kinase (CK) [2]; [15]): 265 U/l
CK functional stability, 35° C. compared to 2 to 8° C. (creatine kinase (CK) [2]; [15]): 97.0%
CK activity, 14 days storage at 2 to 8° C. (creatine kinase (CK) [2]; [16]): 530 U/l
CK activity, 14 days storage at 35° C. (creatine kinase (CK) [2]; [16]): 510 U/l
CK functional stability, 35° C. compared to 2 to 8° C. (creatine kinase (CK) [2]; [16]): 96.2%
CK activity, 14 days storage at 2 to 8° C. (creatine kinase (CK) [2]; [17]): 271 U/l
CK activity, 14 days storage at 35° C. (creatine kinase (CK) [2]; [17]): 267 U/l
CK functional stability, 35° C. compared to 2 to 8° C. (creatine kinase (CK) [2]; [17]): 98.5%
CK activity, 14 days storage at 2 to 8° C. (creatine kinase (CK) [2]; [18]): 523 U/l
CK activity, 14 days storage at 35° C. (creatine kinase (CK) [2]; [18]): 503 U/l
CK functional stability, 35° C. compared to 2 to 8° C. (creatine kinase (CK) [2]; [18]): 96.2%
CK activity, 14 days storage at 2 to 8° C. (creatine kinase (CK) [2]; [19]): 260 U/l
CK activity, 14 days storage at 35° C. (creatine kinase (CK) [2]; [19]): 272 U/l
CK functional stability, 35° C. compared to 2 to 8° C. (creatine kinase (CK) [2]; [19]): 104.4%
CK activity, 14 days storage at 2 to 8° C. (creatine kinase (CK) [2]; [20]): 505 U/l
CK activity, 14 days storage at 35° C. (creatine kinase (CK) [2]; [20]): 521 U/l
CK functional stability, 35° C. compared to 2 to 8° C. (creatine kinase (CK) [2]; [20]): 103.1%
G6P-DH activity, 14 days storage at 2 to 8° C. (G6P-DH [3]; 1 mmol/l Na2SO3 in reagent 1): 3.95 U/l
G6P-DH activity, 14 days storage at 35° C. (G6P-DH [3]; 1 mmol/l Na2SO3 in reagent 1): 1.50 U/l
G6P-DH stability, 35° C. compared to 2 to 8° C. (G6P-DH [3]; 1 mmol/l Na2SO3 in reagent 1): 38.1%
G6P-DH activity, 14 days storage at 2 to 8° C. (G6P-DH [3]; 2 mmol/l Na2SO3 in reagent 1): 3.92 U/l
G6P-DH activity, 14 days storage at 35° C. (G6P-DH [3]; 2 mmol/l Na2SO3 in reagent 1): 1.57 U/l
G6P-DH stability, 35° C. compared to 2 to 8° C. (G6P-DH [3]; 2 mmol/l Na2SO3 in reagent 1): 39.9%
G6P-DH activity, 14 days storage at 2 to 8° C. (G6P-DH [3]; 3 mmol/l Na2SO3 in reagent 1): 3.98 U/l
G6P-DH activity, 14 days storage at 35° C. (G6P-DH [3]; 3 mmol/l Na2SO3 in reagent 1): 1.69 U/l
G6P-DH stability, 35° C. compared to 2 to 8° C. (G6P-DH [3]; 3 mmol/l Na2SO3 in reagent 1): 42.5%
G6P-DH activity, 14 days storage at 2 to 8° C. (G6P-DH [3]; 4 mmol/l Na2SO3 in reagent 1): 4.06 U/l
G6P-DH activity, 14 days storage at 35° C. (G6P-DH [3]; 4 mmol/l Na2SO3 in reagent 1): 1.76 U/l
G6P-DH stability, 35° C. compared to 2 to 8° C. (G6P-DH [3]; 4 mmol/l Na2SO3 in reagent 1): 43.5%
CK activity, Sample 1 (creatine kinase (CK) [4]; sulfite 1 mmol/l test): 242 U/l
CK activity, Sample 2 (creatine kinase (CK) [4]; sulfite 1 mmol/l test): 530 U/l
CK function relative to 0 mmol/l sulfite, Sample 1 (creatine kinase (CK) [4]; sulfite 1 mmol/l test): 102.9%
CK function relative to 0 mmol/l sulfite, Sample 2 (creatine kinase (CK) [4]; sulfite 1 mmol/l test): 100.2%
CK activity, Sample 1 (creatine kinase (CK) [4]; sulfite 2 mmol/l test): 239 U/l
CK activity, Sample 2 (creatine kinase (CK) [4]; sulfite 2 mmol/l test): 520 U/l
CK function relative to 0 mmol/l sulfite, Sample 1 (creatine kinase (CK) [4]; sulfite 2 mmol/l test): 101.4%
CK function relative to 0 mmol/l sulfite, Sample 2 (creatine kinase (CK) [4]; sulfite 2 mmol/l test): 98.4%
CK activity, Sample 1 (creatine kinase (CK) [4]; sulfite 3 mmol/l test): 236 U/l
CK activity, Sample 2 (creatine kinase (CK) [4]; sulfite 3 mmol/l test): 514 U/l
CK function relative to 0 mmol/l sulfite, Sample 1 (creatine kinase (CK) [4]; sulfite 3 mmol/l test): 100.3%
CK function relative to 0 mmol/l sulfite, Sample 2 (creatine kinase (CK) [4]; sulfite 3 mmol/l test): 97.2%
CK activity, Sample 1 (creatine kinase (CK) [4]; sulfite 4 mmol/l test): 227 U/l
CK activity, Sample 2 (creatine kinase (CK) [4]; sulfite 4 mmol/l test): 496 U/l
CK function relative to 0 mmol/l sulfite, Sample 1 (creatine kinase (CK) [4]; sulfite 4 mmol/l test): 96.4%
CK function relative to 0 mmol/l sulfite, Sample 2 (creatine kinase (CK) [4]; sulfite 4 mmol/l test): 93.8%
CK activity, Sample 1 (creatine kinase (CK) [4]; sulfite 5 mmol/l test): 215 U/l
CK activity, Sample 2 (creatine kinase (CK) [4]; sulfite 5 mmol/l test): 504 U/l
CK function relative to 0 mmol/l sulfite, Sample 1 (creatine kinase (CK) [4]; sulfite 5 mmol/l test): 91.3%
CK function relative to 0 mmol/l sulfite, Sample 2 (creatine kinase (CK) [4]; sulfite 5 mmol/l test): 95.3%
CK activity, Sample 1 (creatine kinase (CK) [4]; sulfite 10 mmol/l test): 196 U/l
CK activity, Sample 2 (creatine kinase (CK) [4]; sulfite 10 mmol/l test): 464 U/l
CK function relative to 0 mmol/l sulfite, Sample 1 (creatine kinase (CK) [4]; sulfite 10 mmol/l test): 83.2%
CK function relative to 0 mmol/l sulfite, Sample 2 (creatine kinase (CK) [4]; sulfite 10 mmol/l test): 87.7%
CK activity, Sample 1 (creatine kinase (CK) [4]; sulfite 20 mmol/l test): 182 U/l
CK activity, Sample 2 (creatine kinase (CK) [4]; sulfite 20 mmol/l test): 441 U/l
CK function relative to 0 mmol/l sulfite, Sample 1 (creatine kinase (CK) [4]; sulfite 20 mmol/l test): 77.3%
CK function relative to 0 mmol/l sulfite, Sample 2 (creatine kinase (CK) [4]; sulfite 20 mmol/l test): 83.3%
CK activity, Sample 1 (creatine kinase (CK) [5]; R1 stress 14 days 2-8° C.): 238 U/l
CK activity, Sample 2 (creatine kinase (CK) [5]; R1 stress 14 days 2-8° C.): 509 U/l
recovery sample 1 (vs. fresh reagent) (creatine kinase (CK) [5]; R1 stress 14 days 2-8° C.): 100.8%
recovery sample 2 (vs. fresh reagent) (creatine kinase (CK) [5]; R1 stress 14 days 2-8° C.): 99.5%
CK activity, Sample 1 (creatine kinase (CK) [5]; R1 stress 14 days 35° C.): 227 U/l
CK activity, Sample 2 (creatine kinase (CK) [5]; R1 stress 14 days 35° C.): 486 U/l
recovery sample 1 (vs. fresh reagent) (creatine kinase (CK) [5]; R1 stress 14 days 35° C.): 96.2%
recovery sample 2 (vs. fresh reagent) (creatine kinase (CK) [5]; R1 stress 14 days 35° C.): 94.7%
G6P-DH activity (G6P-DH [1]; [21]): 3.68 U/ml
G6P-DH activity relative to day 0 (G6P-DH [1]; [21]): 100.0%
G6P-DH activity (G6P-DH [1]; [22]): 3.65 U/ml
G6P-DH activity relative to day 0 (G6P-DH [1]; [22]): 99.2%
G6P-DH activity (G6P-DH [1]; [23]): 3.77 U/ml
G6P-DH activity relative to day 0 (G6P-DH [1]; [23]): 102.3%
G6P-DH activity (G6P-DH [1]; [24]): 3.57 U/ml
G6P-DH activity relative to day 0 (G6P-DH [1]; [24]): 96.9%
G6P-DH activity (G6P-DH [1]; [25]): 3.35 U/ml
G6P-DH activity relative to day 0 (G6P-DH [1]; [25]): 91.0%
G6P-DH activity (G6P-DH [1]; [26]): 3.15 U/ml
G6P-DH activity relative to day 0 (G6P-DH [1]; [26]): 85.5%
G6P-DH activity (G6P-DH [1]; [27]): 3.12 U/ml
G6P-DH activity relative to day 0 (G6P-DH [1]; [27]): 84.7%
G6P-DH activity (G6P-DH [1]; [28]): 2.98 U/ml
G6P-DH activity relative to day 0 (G6P-DH [1]; [28]): 80.9%
G6P-DH activity (G6P-DH [1]; [29]): 2.65 U/ml
G6P-DH activity relative to day 0 (G6P-DH [1]; [29]): 72.0%
G6P-DH activity (G6P-DH [1]; [30]): 2.12 U/ml
G6P-DH activity relative to day 0 (G6P-DH [1]; [30]): 57.6%
